This passage reports CC50 results from patent publication US9518022B2, “Anti-HIV compounds” (priority 2014, dated 2016).

A short description of this data set: Cytotoxicity assay (AlamarBlue) in mock infected MT-2 cells. Type of data set: cell-based. The note with it: human. The method, then:
The present assay was used to screen candidate antiviral compounds by quantification of virus spread and production over several rounds of infection in vitro. MT-2, a HIV-1 permissive human T-cell line, was seeded in microtiter plates and was simultaneously treated with serially diluted compound and inoculated with a HIV-1 NL4-3 viral clone engineered to express Renilla luciferase in place of Nef. Following treatment, the culture was incubated for 96 hours. After the incubation, media was collected and used to estimate relative infectivity on the indicator cell line, TZM-bl. Additionally, viral spread was quantified by measuring luciferase activity via a commercially available luciferase substrate. In parallel, MT-2 cells were seeded and inoculated with mock virus in the presence of serially diluted compound. Compound toxicity was quantified 96 hours after treatment with AlamarBlue.
MT-2 (NIH Aids reagent program 237) cells were grown and maintained in an incubator at 37° C. with 5% CO2 using a basal medium of RPMI-1640 supplemented with 10% FBS. Cells were seeded in 100 μl at 2×10^4 cells/well in white walled 96-well microtiter plates. Candidate compounds were 3-fold serially diluted in the appropriate solvent. Solvent without compound was used as a no drug reference. Cells were inoculated at a multiplicity of 0.027 with an HIV-1 NL4-3 virus stock engineered to express Renilla luciferase in place of Nef. Diluted virus stock was first added to serially diluted compound. Compound and virus were delivered to cells in an equal volume (100 μl) and treated cultures were returned to the incubator for 96 hours. In parallel, plates for cytotoxicity estimates were prepared in the same way except cells were plated in clear walled 96-well microtiter plates and were mock infected.
At 96 hours post treatment, 20 μl AlamarBlue proliferation reagent was added to 200 μl treated and mock infected cultures and incubated for 3 hours at 37° C. with 5% CO2 then read at 545, 590 nm on fluorescence plate reader (Biotek).
For all assays, data was imported into Accelrys Assay Explorer 3.3. In Assay Explorer, % inhibition (antiviral or cytotoxicity) was calculated using the solvent control as a reference by the following equation: 1−(SignalCompound/SignalReference). The % Inhibition and compound concentration data was fitted using the following 4-parameter logistic model (Assay Explorer model 42):
[formula] where X is compound concentration, Y is % inhibition, D is the maximum % Inhibition (constrained to 100%), C is IC50 value or inflection point, B is the hill slope, and A is the minimum % inhibition (constrained to 0%). The IC50 value is reported as the EC50 or CC50 depending on the assay endpoint. EC50 represents the effective concentration at which virus replication is inhibited by 50 percent. CC50 represents the concentration that results in the death of 50 percent of the host cells. The selectivity or therapeutic index (SI or TI), is the ratio of CC50 over EC50 and represents the relative effectiveness in inhibiting viral replication compared to inducing cell death.

[1] abbreviates: mock infected MT-2 cells, 96 hours, AlamarBlue, read-out: CC50.

Where two headings read alike, the source gives them in different places.

Consider `COc1cc(C)c(/C=C/C2NCCc3cc(OCc4ccccc4)c(OC)cc32)cc1OCc1ccccc1` (stereo not drawn) [AF, 6-benzyloxy-1-[(E)-2-(5-benzyloxy-4-methoxy-2-methyl-phenyl)vinyl]-7-methoxy-1,2,3,4-tetrahydroisoquinoline], for which half-maximal cytotoxicity (CC50 at 96 h) was put at 3.87 µM.

For the molecule `COc1cc2c(cc1OCc1ccccc1)CCNC2/C=C/c1cc(OC)c(OCc2ccccc2)c(OC)c1` (stereo not drawn) [AP, 6-(benzyloxy)-1-[(E)-2-[4-(benzyloxy)-3,5-dimethoxyphenyl]ethenyl]-7-methoxy-1,2,3,4-tetrahydroisoquinoline], the cytotoxic concentration (CC50) (usually the concentration at which the toxic effect on the cells reaches its halfway point) at 96 h under setting [1] was found to be 1.64 µM. In the case of `COc1cc(OC)c(OC)cc1/C=C/C1NCCc2cc(OCc3ccccc3)c(OC)cc21` (stereo not drawn) [AQ, 6-(benzyloxy)-7-methoxy-1-[(E)-2-(2,4,5-trimethoxyphenyl)ethenyl]-1,2,3,4-tetrahydroisoquinoline], the CC50 at 96 h under setting [1] turned out to be 1.98 µM.

With `COc1ccc(/C=C/C2NCCc3cc(OCc4ccccc4)c(OC)cc32)cc1Br` (stereo not drawn) [AR, 6-(benzyloxy)-1-[(E)-2-(3-bromo-4-methoxyphenyl)ethenyl]-7-methoxy-1,2,3,4-tetrahydroisoquinoline], under setting [1], the CC50 at 96 h is 6.2 µM. The molecule `COc1cc(/C=C/C2NCCc3cc(OCc4ccccc4)c(OC)cc32)cc(OC)c1` (stereo not drawn) [AT, 6-(benzyloxy)-1-[(E)-2-(3,5-dimethoxyphenyl)ethenyl]-7-methoxy-1,2,3,4-tetrahydroisoquinoline] returned a CC50 at 96 h of 4.85 µM. Turning to `COc1cc(/C=C/C2NCCc3cc(OCc4ccccc4)c(OC)cc32)ccn1` (stereo not drawn) [AU, 6-benzyloxy-7-methoxy-1-[(E)-2-(2-methoxy-4-pyridyl)vinyl]-1,2,3,4-tetrahydroisoquinoline], under setting [1], the CC50 at 96 h amounted to 3.22 µM. Molecule `COc1ccc(/C=C/C2NCCc3cc(OCc4ccccc4)c(OC)cc32)c(OC)c1` (stereo not drawn) [AV, 6-(benzyloxy)-1-[(E)-2-(2,4-dimethoxyphenyl)ethenyl]-7-methoxy-1,2,3,4-tetrahydroisoquinoline] returned a CC50 at 96 h of 5.5 µM. Consider `COc1cc2c(cc1OCc1ccccc1)CCNC2/C=C/c1ccncc1` (stereo not drawn) [AW, 6-(benzyloxy)-7-methoxy-1-[(E)-2-(pyridin-4-yl)ethenyl]-1,2,3,4-tetrahydroisoquinoline], for which the CC50 at 96 h under setting [1] is 11.4 µM.

With `COc1ccc(/C=C/C2NCCc3cc(OCc4ccccc4)c(OC)cc32)cn1` (stereo not drawn) [AX, 6-benzyloxy-7-methoxy-1-[(E)-2-(6-methoxy-3-pyridyl)vinyl]-1,2,3,4-tetrahydroisoquinoline], the CC50 at 96 h under setting [1] came to 11.4 µM. Regarding `COc1cc2c(cc1OCc1ccccc1)CCNC2c1cc(OCc2ccccc2)c(OC)cc1C` (stereo not drawn) [AY, 6-(benzyloxy)-1-[5-(benzyloxy)-4-methoxy-2-methylphenyl]-7-methoxy-1,2,3,4-tetrahydroisoquinoline], the CC50 at 96 h is 5.14 µM. `COc1cc2c(cc1OCc1ccccc1)CCNC2c1ccccc1CNC(=O)OC(C)(C)C` (stereo not drawn) [AZ, tert-butyl N-({2-[6-(benzyloxy)-7-methoxy-1,2,3,4-tetrahydroisoquinolin-1-yl]phenyl}methyl)carbamate] yielded a CC50 at 96 h of 9.48 µM. `COc1cc(C)c(/C=C/C2NCCc3cc(OCc4ccccc4)c(OC)cc32)c(C)c1` (stereo not drawn) [BA, 6-(benzyloxy)-7-methoxy-1-[(E)-2-(4-methoxy-2,6-dimethylphenyl)ethenyl]-1,2,3,4-tetrahydroisoquinoline] registered a 50% cytotoxic concentration (CC50) at 96 h of 3.33 µM.

On to `COc1cc2c(cc1OCc1ccccc1)CCNC2/C=C/c1cc2c(cc1C)OCO2` (stereo not drawn) [BB, 6-(benzyloxy)-7-methoxy-1-[(E)-2-(6-methyl-2H-1,3-benzodioxol-5-yl)ethenyl]-1,2,3,4-tetrahydroisoquinoline], for which the CC50 at 96 h is 2.98 µM. Molecule `COc1cc2c(cc1OCc1ccccc1)CCNC2/C=C/c1cc2c(cc1C)OCCO2` (stereo not drawn) [BC, 6-(benzyloxy)-7-methoxy-1-[(E)-2-(7-methyl-2,3-dihydro-1,4-benzodioxin-6-yl)ethenyl]-1,2,3,4-tetrahydroisoquinoline] displayed a CC50 at 96 h of 2.43 µM.

In turn, `CCCCOc1ccc(/C=C/C2NCCc3cc(OCc4ccccc4)c(OC)cc32)cc1OC` (stereo not drawn) [BD, 6-(benzyloxy)-1-[(E)-2-(4-butoxy-3-methoxyphenyl)ethenyl]-7-methoxy-1,2,3,4-tetrahydroisoquinoline] displayed a CC50 at 96 h of 3.62 µM. With `CCCCOc1cc(/C=C/C2NCCc3cc(OCc4ccccc4)c(OC)cc32)ccc1OC` (stereo not drawn) [BE, 6-(benzyloxy)-1-[(E)-2-(3-butoxy-4-methoxyphenyl)ethenyl]-7-methoxy-1,2,3,4-tetrahydroisoquinoline], half-maximal cytotoxicity (CC50 at 96 h) was put at 3.75 µM.

As for `COc1ccc(/C=C/C2NCCc3cc(OCc4ccccc4)c(OC)cc32)cc1F` (stereo not drawn) [BF, 6-(benzyloxy)-1-[(E)-2-(3-fluoro-4-methoxyphenyl)ethenyl]-7-methoxy-1,2,3,4-tetrahydroisoquinoline], the midpoint of cytotoxicity, the CC50 at 96 h, lay at 33.5 µM. As for `COc1cc2c(cc1OCc1ccccc1)CCNC2/C=C/c1ccc(N(C)C)cc1C` (stereo not drawn) [BG, 4-[(E)-2-[6-(benzyloxy)-7-methoxy-1,2,3,4-tetrahydroisoquinolin-1-yl]ethenyl]-N,N,3-trimethylaniline], half-maximal cytotoxicity (CC50 at 96 h) was put at 4.44 µM. `COc1cc2c(cc1OCc1ccccc1)CCNC2/C=C/c1cc(OC(F)(F)F)ccc1C` (stereo not drawn) [BH, 6-(benzyloxy)-7-methoxy-1-[(E)-2-[2-methyl-5-(trifluoromethoxy)phenyl]ethenyl]-1,2,3,4-tetrahydroisoquinoline] had a 50% cytotoxic concentration (CC50) at 96 h of 5.3 µM. `COc1cc2c(cc1OCc1ccccc1)CCNC2/C=C/c1ccccc1` (stereo not drawn) [BI, 6-(benzyloxy)-7-methoxy-1-[(E)-2-phenylethenyl]-1,2,3,4-tetrahydroisoquinoline] came in with a CC50 at 96 h of 10 µM. Still for that read-out and setting: under `COc1ccc(/C=C/C2NCCc3cc(OCc4ccccc4)c(OC)cc32)cc1` (stereo not drawn) [BJ, 6-(benzyloxy)-7-methoxy-1-[(E)-2-(4-methoxyphenyl)ethenyl]-1,2,3,4-tetrahydroisoquinoline] stands 20.9 µM. Take `COc1cc2c(cc1OCc1ccccc1)CCNC2/C=C/c1cccc(OCc2ccccc2)c1` (stereo not drawn) [BK, 6-(benzyloxy)-1-[(E)-2-[3-(benzyloxy)phenyl]ethenyl]-7-methoxy-1,2,3,4-tetrahydroisoquinoline]: the cytotoxic concentration (CC50) at 96 h came to 4 µM. `CCCCOc1cc(/C=C/C2NCCc3cc(OCc4ccccc4)c(OC)cc32)c(C)cc1OC` (stereo not drawn) [BL, 6-(benzyloxy)-1-[(E)-2-(5-butoxy-4-methoxy-2-methylphenyl)ethenyl]-7-methoxy-1,2,3,4-tetrahydroisoquinoline] came in with a CC50 at 96 h of 1.1 µM. Same read-out and setting: the figure for `COc1cc2c(cc1OCc1ccccc1)CCNC2/C=C/c1ccc2c(c1)CCO2` (stereo not drawn) [BM, 6-(benzyloxy)-1-[(E)-2-(2,3-dihydro-1-benzofuran-5-yl)ethenyl]-7-methoxy-1,2,3,4-tetrahydroisoquinoline] is 20.4 µM. Molecule `COc1cc2c(cc1OCc1ccccc1)CCNC2/C=C/c1ccc2occc2c1` (stereo not drawn) [BN, 1-[(E)-2-(1-benzofuran-5-yl)ethenyl]-6-(benzyloxy)-7-methoxy-1,2,3,4-tetrahydroisoquinoline] registered a CC50 at 96 h of 20.7 µM. In turn, `COc1cc(C)c(/C=C/C2NCCc3cc(OCc4ccccc4)c(OC)cc32)cc1OCCCC(=O)O` (stereo not drawn) [BO, 4-{5-[(E)-2-[6-(benzyloxy)-7-methoxy-1,2,3,4-tetrahydroisoquinolin-1-yl]ethenyl]-2-methoxy-4-methylphenoxy}butanoic acid] registered a CC50 at 96 h of 8.96 µM.

For `COc1cc(F)c(/C=C/C2NCCc3cc(OCc4ccccc4)c(OC)cc32)cc1OC` (stereo not drawn) [BP, 6-(benzyloxy)-1-[(E)-2-(2-fluoro-4,5-dimethoxyphenyl)ethenyl]-7-methoxy-1,2,3,4-tetrahydroisoquinoline], the half-maximal cytotoxic concentration (CC50) at 96 h was determined as 5.61 µM. The molecule `COc1ccc(/C=C/C2NCCc3cc(OCc4ccccc4)c(OC)cc32)cc1OC` (stereo not drawn) [BQ, 6-(benzyloxy)-1-[(E)-2-(3,4-dimethoxyphenyl)ethenyl]-7-methoxy-1,2,3,4-tetrahydroisoquinoline] displayed a CC50 at 96 h of 8.7 µM. `COc1ccc(/C=C/C2NCCc3cc(OCc4ccccc4)c(OC)cc32)c(F)c1` (stereo not drawn) [BR, 6-(benzyloxy)-1-[(E)-2-(2-fluoro-4-methoxyphenyl)ethenyl]-7-methoxy-1,2,3,4-tetrahydroisoquinoline] displayed a CC50 at 96 h of 10 µM. `COc1cc2c(cc1OCc1ccccc1)CCNC2/C=C/c1sccc1C` (stereo not drawn) [BS, 6-(benzyloxy)-7-methoxy-1-[(E)-2-(3-methylthiophen-2-yl)ethenyl]-1,2,3,4-tetrahydroisoquinoline] yielded a half-maximal cytotoxic concentration (CC50) at 96 h of 11.3 µM.
